Reference: US20130156708A1, “PHENOL DERIVATIVES AS ANTIMICROBIAL AGENTS” (Symrise AG, priority 2011, published 2013)
In brackets after ≈: the same amount, converted by molar mass.

How the values were obtained:
[1] = Taste test in silica toothpaste formulation; settings: compound 0.1%, spearmint Optamint Flavor 1%, versus sample without compound
Source text: A silica toothpaste formulation in combination with a standard spearmint flavour (Optamint® Flavor, dosage 1%) plus the respective compound of formula (IIa) or (IIb) dosage 0.1% was compared to a sample without such compound of formula (I). The taste impressions of the sample including the compound of formula (IIa) or (IIb), respectively, are described as follows: […]

E. coli [2] = experiment: Fast time-kill test, inactivation time for 99.9% kill, E. coli; type: cell-based; settings: Escherichia coli; 0.1% concentration; averages of four independent experiments
Description: (§1) This protocol gives an exact description on how to perform a fast time-kill experiment. Fast time-kill experiments serve to determine the antimicrobial kill activity of a specific substance or substance mixture against a particular microorganism or a mixture of microorganisms. To kill (synonymous: to inactivate) a microorganism means that after the treatment, the microorganism has permanently lost its capacity to grow or to replicate.
(§2) Microorganisms are grown in suitable growth medium allowing for exponential growth. For E. coli, Salmonella spp., S. aureus, P. aeruginosa, and for C. albicans tryptic soy broth medium is used. One hundred ml Erlenmeyer flasks containing 20 ml growth medium are inoculated with 10^5 to 10^8 microbial cells/ml and incubated overnight under continuous shaking (120 rpm) at a temperature allowing for exponential growth, usually between 20 and 37° C. The temperature is chosen in such a way to ensure the exponential growth for the used microorganisms, for E. coli, Salmonella spp., S. aureus, P. aeruginosa, and for C. albicans 37° C. is used.
(§3) After reaching the stationary growth phase, 100 μl of this culture are transferred in a second Erlenmeyer flask containing 20 ml of the same growth medium. This culture is shaken for further (preferably to up to 7 hours) under identical conditions as described above. Subsequently, this culture is diluted in the same growth medium to 10^5 to 10^9, preferably to 10^6 to 10^8 cells/ml. With this suspension of microorganism (named “microorganism working suspension”) the time-kill test is performed.
(§4) Test substances are dissolved in DMSO, EtOH and/or H2O, preferably in H2O, to prepare a 100× concentrated stock solution. […]
(§5) Samples are taken from reaction tubes after defined time intervals (preferably 1, 2 and 5 min) to determine the number of surviving microorganisms. […] The number of surviving microorganisms is determined by aspiring 100 μl volumes from reaction tubes and mixing it immediately with 900 μl growth medium to prepare a 10^−1 dilution. […]

S. aureus [3] = experiment: Fast time-kill test, inactivation time for 99.9% kill, S. aureus; type: cell-based; settings: Staphylococcus aureus; 0.1% concentration; averages of four independent experiments
Description: as §1, §2, §3, §4, §5

C. albicans [4] = experiment: Fast time-kill test, inactivation time for 99.9% kill, C. albicans; type: cell-based, Candida albicans; settings: Candiada albicans; 0.1% concentration; averages of four independent experiments
Description: as §1, §2, §3, §4, §5

E. coli [5] = experiment: Minimum inhibitory concentration, E. coli; type: cell-based, Escherichia coli; settings: for MIC: Escherichia coli
Source text: (§6) Assessment of minimum inhibitory concentrations of thymol and 4-prenylphenol against versus microorganisms relevant for home and personal care:
(§7) The results of comparative assessment of minimum inhibitor concentration for both thymol and 4-prenylphenol are listed in Table 2.

S. aureus [6] = experiment: Minimum inhibitory concentration, S. aureus; type: cell-based, Staphylococcus aureus; settings: for MIC: Staphylococcus aureus
Source text: as §6, §7

C. albicans [7] = experiment: Minimum inhibitory concentration, C. albicans; type: cell-based, Candida albicans; settings: for MIC: Candida albicans
Source text: as §6, §7

Aspergillus niger = experiment: Minimum inhibitory concentration, A. niger; type: cell-based; settings: for MIC: Aspergillus niger
[8] = test system: microorganisms relevant for home and personal care; experiment: Minimum inhibitory concentration, further microorganisms of Table 2; type: cell-based
Source text: as §6, §7

E. coli [9] = experiment: Synergistic activity (Kull) in fast time-kill experiments, E. coli; type: cell-based, Escherichia coli
Description: (§8) This protocol gives an exact description on how to perform a fast time-kill experiment. Fast time-kill experiments serve to determine the antimicrobial kill activity of a specific substance or substance mixture against a particular microorganism or a mixture of microorganisms.
as §2, §3
(§9) Test substances are dissolved in DMSO, EtOH and/or H2O, preferably in H2O, to prepare a 100× concentrated stock solution. In case the test substance is not completely soluble in H2O, the solvents are chosen in to ensure a complete dissolution of the test substance, the chosen concentration of DMSO and EtOH being as low as possible. For solid substances, complete dissolution has to be ensured. […] Preferably, the concentrations of the test substances in the 100× concentrated stock solution are between 1 and 100%, corresponding to 0.01 to 1% in the final test. The amount of the 100× concentrated stock solution in the final test should not exceed 1% in order to limit the concentration of DMSO or EtOH to 1% in the final test.
(§10) Fast time-kill tests are performed in 1000 μl volumes in 1.5 ml plastic reaction tubes (Eppendorf). The test is started by mixing (in this particular order) 100 μl microorganism working suspension with 890 μl tryptic soy broth growth medium containing 0.1% Tween® 80 and 10 μl 100× concentrated stock solution of test substances. Controls are included that are prepared as described above, but using 100× stock solution without test substances. During the test, tubes are incubated at the same temperature as the microorganisms were grown, usually 20 to 37° C. (for E. coli, Salmonella spp., S. aureus, P. aeruginosa, and for C. albicans 37° C. is used) in an Eppendorf Thermomixer and are vigorously shaken at 1400 rpm.
(§11) Samples are taken from reaction tubes after defined time intervals (preferably 1, 2 and 5 min) to determine the number of surviving microorganisms. At time 0 (immediately after starting the test) samples are taken from control tubes to determine the initial number of microorganisms in the test. The number of surviving microorganisms is determined by aspiring 100 μl volumes from reaction tubes and mixing it immediately with 900 μl growth medium to prepare a 10^−1 dilution. Further dilutions are prepared in this way from 10^−2 to 10^−4. One hundred μl volumes of the different dilutions are plated on tryptic soy broth agar plates and incubated for up to 48 h at the same temperature as the microorganisms were grown, usually 20 to 37° C. (for E. coli, Salmonella spp., S. aureus, P. aeruginosa, and for C. albicans 37° C. is used). Colonies grown on plates are counted and the numbers of surviving microorganisms are calculated for the different treatments and time points. For substances with low minimum inhibitory concentrations (MIC), sufficient dilution below the concentration of the MIC value has to be ensured.

S. aureus [10] = experiment: Synergistic activity (Kull) in fast time-kill experiments, S. aureus; type: cell-based, Staphylococcus aureus
Description: as §8, §2, §3, §9, §10, §11

[11] = Taste test in alcohol free mouth wash formulation; settings: compound 0.1%, peppermint Optamint Flavor 0.15%, versus sample without compound
Source text: The compounds of formulae (IIa) and (IIIa) were further tested in oral care formulations. In particular, an alcohol free mouth wash formulation in combination with a standard peppermint flavor (Optamint® Flavor, dosage 0.15%) plus compound of formula (IIa) or (IIIa), respectively, (dosage 0.1%) was compared with a sample without any compound of formula (I), but being otherwise identically composed. The taste impressions of the samples including the respective compound of formula (IIa) or (IIIa) are described as follows: […]

[12] = test system: E. coli, S. aureus and C. albicans; experiment: Fast time-kill test, statements of the text over all investigated microorganisms; type: cell-based; settings: 0.1% concentration, span over E. coli, averages of four independent experiments
Description: as §1
as §2, with “The temperature is chosen in such a way to ensure the exponential growth for the used microorganisms, for E. coli, Salmonella spp., S. aureus, P. aeruginosa, and for C. albicans 37° C. is used.” left out
as §5

SMILES	numbing/tingling feeling on the tongue [1]	Inactivation time for 99.9% kill (E. coli [2]) [min]	Inactivation time for 99.9% kill (S. aureus [3]) [min]	Inactivation time for 99.9% kill (C. albicans [4]) [min]	MIC (E. coli [5]) [µg/mL]	MIC (S. aureus [6]) [µg/mL]	MIC (C. albicans [7]) [µg/mL]	MIC (Aspergillus niger) [µg/mL]	MIC ([8]; Corynebacterium xerosis) [µg/mL]	MIC ([8]; Fusobacterium nucleatum) [µg/mL]	MIC ([8]; Malassezia furfur) [µg/mL]	MIC ([8]; Porphyromonas gingivalis) [µg/mL]	MIC ([8]; Pseudomonas aeruginosa) [µg/mL]	MIC ([8]; Salmonalla enteritidis) [µg/mL]	MIC ([8]; Staphylococcus epidermidis) [µg/mL]	MIC ([8]; Streptococcus mutans) [µg/mL]	numbing/tingling feeling on the tongue [11]	other results
C=C(C)CCc1ccc(O)cc1 [IIb, 4-(3-Methylbut-3-enyl)phenol]	clearly leaves a numbing/tingling feeling on the tongue																	
Cc1ccc(C(C)C)c(O)c1 [Thymol, reference compound]		4.1	4.9	8.7	125 (≈ 832 µM)	125 (≈ 832 µM)	250 (≈ 1660 µM)	1000 (≈ 6660 µM)	125 (≈ 832 µM)	125 (≈ 832 µM)	1000 (≈ 6660 µM)	125 (≈ 832 µM)	1000 (≈ 6660 µM)	250 (≈ 1660 µM)	250 (≈ 1660 µM)	250 (≈ 1660 µM)		
COC(=O)c1ccc(O)cc1 [Methylparaben, reference compound]																		Inactivation rate k (E. coli [9]; Methylparaben 2500 ppm): 0.09 min⁻¹; Inactivation time T99.9% (E. coli [9]; Methylparaben 2500 ppm): 89.1 min; Reduction of surviving microorganisms (E. coli [9]; Methylparaben 2500 ppm): 0.91; Inactivation rate k (S. aureus [10]; Methylparaben 5000 ppm): 0.40 min⁻¹; Inactivation time T99.9% (S. aureus [10]; Methylparaben 5000 ppm): 18.1 min; Reduction of surviving microorganisms (S. aureus [10]; Methylparaben 5000 ppm): 0.67
CC(C)=CCc1ccc(O)cc1 [IIa, 4-(3-Methylbut-2-enyl)phenol]	clearly leaves a numbing/tingling feeling on the tongue	1.3	1.2	1.4	125 (≈ 771 µM)	125 (≈ 771 µM)	125 (≈ 771 µM)	64 (≈ 394 µM)	125 (≈ 771 µM)	64 (≈ 394 µM)	1000 (≈ 6160 µM)	64 (≈ 394 µM)	> 1000	125 (≈ 771 µM)	125 (≈ 771 µM)	125 (≈ 771 µM)	clearly leaves a numbing/tingling feeling on the tongue	minimum inhibitory concentration compared with Thymol (E. coli [5]; E. coli): equal to the one of Thymol; minimum inhibitory concentration compared with Thymol (S. aureus [6]; S. aureus): equal to the one of Thymol; minimum inhibitory concentration compared with Thymol (C. albicans [7]; C. albicans): a factor of two lower; antimicrobial activity against the mould A. niger (Aspergillus niger): strong antimicrobial activity; Inactivation rate k (E. coli [9]; 4-Prenylphenol 250 ppm): 0.94 min⁻¹; Inactivation time T99.9% (E. coli [9]; 4-Prenylphenol 250 ppm): 7.4 min; Reduction of surviving microorganisms (E. coli [9]; 4-Prenylphenol 250 ppm): 0.39; Inactivation rate k (S. aureus [10]; 4-Prenylphenol 400 ppm): 1.2 min⁻¹; Inactivation time T99.9% (S. aureus [10]; 4-Prenylphenol 400 ppm): 5.6 min; Reduction of surviving microorganisms (S. aureus [10]; 4-Prenylphenol 400 ppm): 0.29
Oc1cc(Cl)ccc1Oc1ccc(Cl)cc1Cl [Triclosan]		>100	>100	>100														Inactivation time for a 99.9% kill [12]: > 100 min
CC(C)=CCc1ccccc1O [IIIa, 2-(3-Methylbut-2-enyl)phenol]																	clearly leaves a numbing/tingling feeling on the tongue	
